Test results reported in paper PMC10460054, “Multiplex Quantitative Analysis of 9 Compounds of Scutellaria baicalensis Georgi in the Plasma of Respiratory Syncytial Virus-Infected Mice Based on HPLC-MS/MS and Pharmacodynamic Effect Correlation Analysis” (Molecules, 2023).

Legend:
[1] = HPLC-MS/MS quantification of 9 compounds in plasma of RSV-infected mice after Scutellaria baicalensis Georgi administration; assay type: in vivo, BALB/c mice; parameters: drug-containing plasma content: unit not given here; conditions: for drug-containing plasma content: RSV-infected mice, mean ± SD, n = 6; for time of highest plasma concentration, first peak / time of highest plasma concentration, second peak: RSV-infected mice after Scutellaria baicalensis Georgi administration, double peak phenomenon
Method: The study employed a Vanquish high-performance liquid chromatograph for chromatographic separation, with a HALO C18 column (2.1 × 100 mm, 2.7 μm) as the chromatographic column.
Mass spectrometry was performed using a quadrupole-electrostatic field orbitrap desktop mass spectrometer equipped with an electrospray ion source (ESI). The ESI parameters were set as follows: the pyrolysis voltage was 3.0 kV, the auxiliary gas flow rate was 10 mL/min, the ion transport tube temperature was 350 °C, the auxiliary gas temperature was 350 °C, and the sheath gas flow rate was 45 L/min. Quantitative analysis was performed using the selective ion detection (SIM) mode (Table S1).
Male BALB/c mice, aged 2 weeks and weighing 10–12 g, were chosen for this study. They were acclimatized for 2 days and then randomly assigned to one of five groups: blank (C), model (M), positive control ribavirin (Y1), positive control lianhua qingwen granules (Y2), and Scutellaria baicalensis Georgi administration (H1-H12). Each group consisted of six mice, and their weights were recorded. The mice were pre-administered for 2 days, and on the third day, RSV virus (TCID50 = 10^−6) was inoculated through intranasal infection at a volume of 35 μL per mouse. The blank group was inoculated with normal saline of the same volume. After the inoculation of the RSV virus, the blank and model groups were given distilled water by gavage, while the drug-administered groups were given an aqueous extract of Scutellaria baicalensis Georgi (10 µL/g) once a day for 3 days. The mice were observed daily for their mental status, hair color, diet, and body weight. […] It was then centrifuged at 3000 r/min for 10 min, and the upper layer of plasma was stored at −80℃. Lung tissues were weighed, the lung index was calculated, and the lung tissues were stored in the refrigerator at −80 °C for freezing.
The plasma sample (200 μL) was processed in a 5 mL tube. Subsequently, 10 μL of 5% formic acid and 20 μL of 2 mol/L hydrochloric acid were added, followed by vortexing for 1 min with 10 μL of internal standard solution (100 ng/mL tinidazole). The extraction was completed by adding 2000 μL of acetonitrile solvent and vortexing for 2 min. The mixture was then centrifuged at 12,000 r/min at 4 °C for 10 min, and the supernatant solution was collected in a new centrifuge tube. The supernatant solution was dried by nitrogen at room temperature before being redissolved in 50 μL of 70% acetonitrile solution containing 0.1% formic acid. After vortexing for 1 min, the solution was centrifuged at 12,000 r/min at 4 °C for 10 min, and the resulting supernatant was injected for analysis. The injection volume was 3 μL.
The drug-containing plasma at different time points was subjected to sample treatment. The HPLC-MS/MS analysis method was used to quantitatively detect the 9 compounds in the ion detection (SIM) mode. According to the relative peak area value = index peak area/internal standard peak area, the corresponding concentration value was calculated by substituting the standard curve of each component.

[2] = Stability of 9 compounds in mouse plasma under storage conditions; assay type: in vitro ADME; conditions: n = 6; for Stability 3-Freeze-Thaw Cycles RE: 3 times repeated freeze-thaw at −80 °C; for Stability Short-Term RE: 12 h at 4 °C; for Stability Long-Term RE: −20 °C for 20 days
[3] = 0.083 h after last gavage of Scutellaria baicalensis Georgi extract
[4] = 0.167 h after last gavage of Scutellaria baicalensis Georgi extract
[5] = 0.25 h after last gavage of Scutellaria baicalensis Georgi extract
[6] = 0.5 h after last gavage of Scutellaria baicalensis Georgi extract
[7] = 1 h after last gavage of Scutellaria baicalensis Georgi extract
[8] = 2 h after last gavage of Scutellaria baicalensis Georgi extract
[9] = 4 h after last gavage of Scutellaria baicalensis Georgi extract
[10] = 6 h after last gavage of Scutellaria baicalensis Georgi extract
[11] = 8 h after last gavage of Scutellaria baicalensis Georgi extract
[12] = 10 h after last gavage of Scutellaria baicalensis Georgi extract
[13] = 12 h after last gavage of Scutellaria baicalensis Georgi extract
[14] = 24 h after last gavage of Scutellaria baicalensis Georgi extract
[15] = high QC (20,000 or 10,000 ng/mL)

Structure (SMILES)	drug-containing plasma content [1, 3]	drug-containing plasma content [1, 4]	drug-containing plasma content [1, 5]	drug-containing plasma content [1, 6]	drug-containing plasma content [1, 7]	drug-containing plasma content [1, 8]	drug-containing plasma content [1, 9]	drug-containing plasma content [1, 10]	drug-containing plasma content [1, 11]	drug-containing plasma content [1, 12]	drug-containing plasma content [1, 13]	drug-containing plasma content [1, 14]	Stability 3-Freeze-Thaw Cycles RE [2, 15]	Stability 3-Freeze-Thaw Cycles RE ([2]; low QC (12.5 or 25.6 ng/mL))	Stability 3-Freeze-Thaw Cycles RE ([2]; medium QC (320 or 160 ng/mL))	Stability Short-Term RE [2, 15]	Stability Short-Term RE ([2]; low QC (12.5 or 25.6 ng/mL))	Stability Short-Term RE ([2]; medium QC (320 or 160 ng/mL))	Stability Long-Term RE [2, 15]	Stability Long-Term RE ([2]; low QC (12.5 or 25.6 ng/mL))	other results
O=c1cc(-c2ccccc2)oc2cc(O)cc(O)c12 [Chrysin]	0	0	0	10.37± 2.12	15.38± 4.94	21.43± 4.86	12.37± 2.12	60.64± 2.86	0	0	0	0	−2.47%	−6.42%	−5.15%	−2.74%	−5.59%	−10.49%	−3.86%	−4.52%	Stability Long-Term RE ([2]; medium QC (320 or 160 ng/mL)): −9.37%
O=c1cc(-c2ccccc2)oc2c(O)c(O)cc(O)c12 [Norwogonin]	28.17± 2.96	94.18± 5.68	23.48± 0.05	13.88± 4.73	12.42± 7.14	0	14.29± 9.94	113.88± 4.73	21.94± 0.43	16.07± 3.80	0	0	1.97%	−6.11%	7.06%	−1.39%	−2.17%	0.74%	0.11%	−8.96%	time of highest plasma concentration, first peak [1]: 0.167 h; time of highest plasma concentration, second peak [1]: 6 h; Stability Long-Term RE ([2]; medium QC (320 or 160 ng/mL)): 3.74%
COc1c(OC2OC(C(=O)O)C(O)C(O)C2O)cc2oc(-c3ccccc3)cc(=O)c2c1O [Oroxylin A 7-O-beta-D-glucuronide]	462.93± 10.74	603.78± 13.98	143.83± 6.73	315.26± 12.78	138.74± 3.62	315.26± 12.78	412.32± 18.42	1008.71± 54.19	286.84± 8.27	160.51± 5.17	29.40± 0.71	0	−0.56%	6.23%	3.08%	−0.23%	7.34%	1.89%	0.55%	7.73%	time of highest plasma concentration, first peak [1]: 0.167 h; time of highest plasma concentration, second peak [1]: 6 h; Stability Long-Term RE ([2]; medium QC (320 or 160 ng/mL)): 2.21%
